# Experimental data as given in patent publication US4206207A, “Use of 4-carboxy-phthalato(1,2-diaminocyclohexane)-platinum (II) and alkali metal salts thereof with cyclophosphamide in alleviating L1210 murine leukemia” (priority 1978, dated 1980).
# Several values for one entry are separate records, joined by “and”; a condition that tells them apart may be missing. Identical values can stand only once.
# Experiments:
# [1] = Renal Toxicity Screening Protocol, toxicity compared to NSC-119875; format: in vivo; settings: for Body Weight Loss score / Clinical Chemistry - Blood Urea Nitrogen score / Clinical Chemistry - Creatinine score / Clinical Chemistry - Serum Glutamic Pyruvic Transaminase score / Hematology - Hematocrit score / Hematology - White Blood Cell score / Histopathology - Gastrointestinal score / Histopathology - Hematopoietic score / Histopathology - Lymphatic score / Histopathology - Renal score: relative to NSC-119875; for TOTAL SCORE: sum of the ten scores
# Lewis lung = experiment: Mouse tumor panel: Lewis lung (iv, survival time); format: in vivo; settings: D1-9
# Experimental: (§1) NSC-271674 Against a Panel of a Mouse Tumors
# (§2) *Survival time (mean or median) assay
# (§3) Data are expressed as a percentage of the survival time in days or the
# (§4) tumor weights in mg of the treated mice divided by the corresponding
# (§5) values for the control mice. All testing was performed using both platinu
# (§6) compounds in the same experiment. The criteria for activity are as
# (§7) follows: confirmed activity (activity from two separate laboratories) of
# (§8) % T/C of 150 or more for survival systems and 10% or less for tumor weigh
# (§9) inhibition assays. Lower levels of activity such as a % T/C of 125 for
# (§10) survival systems and 42% for tumor weight inhibition assays are considere
# (§11) statistically significant.
# murine leukemia L1210 = experiment: Antileukemic activity in mice against murine leukemia L1210 (general statement); format: in vivo
# Text: Some previous platinum chelate compounds show dosage limitation due to renal impairment but the free carboxyl of the present composition offers a possible route of oral […] and absorption by the stomach.
# Lethality (LD50) in mice = settings: mouse, in vivo
# L1210 [2] = experiment: Mouse tumor panel: L1210 (ip, survival time); format: in vivo; settings: D1-9
# Experimental: as §1, §2, §3, §4, §5, §6, §7, §8, §9, §10, §11
# Colon #38 = experiment: Mouse tumor panel: Colon #38 (sc, tumor weight inhibition); format: in vivo; settings: D2,9
# Experimental: as §1
# (§12) **Tumor weight inhibition assay.
# as §3, §4, §5, §6, §7, §8, §9, §10, §11
# CD8F1 mammary = experiment: Mouse tumor panel: CD8F1 mammary (sc, tumor weight inhibition); format: in vivo; settings: Q7DX5
# Experimental: as §1, §12, §3, §4, §5, §6, §7, §8, §9, §10, §11
# [3] = tested on: strains of murine leukemia; experiment: Activity against strains of murine leukemia resistant to NSC 119875 (general statement); settings: mouse, in vivo
# L1210 leukemia [4] = experiment: NCI screen against L1210 leukemia, day 1, 5, 9 schedule; format: in vivo, murine
# Text: The compound was submitted to the Drug Development Branch of the National Cancer Institute and assigned NSC Number 271674. It was screened against the L1210 leukemia on a day 1, 5, 9 schedule and the following results were obtained: […]
# L1210 leukemia [5] = experiment: Second screener against L1210 leukemia, day 1, 5, 9 schedule; format: in vivo, murine
# Text: The compound was submitted to the Drug Development Branch of the National Cancer Institute and assigned NSC Number 271674. It was screened against the L1210 leukemia on a day 1, 5, 9 schedule and the following results were obtained:
# B16 melanoma = experiment: Mouse tumor panel: B16 melanoma (ip, survival time); format: in vivo; settings: D1-9
# Experimental: as §1, §2, §3, §4, §5, §6, §7, §8, §9, §10, §11
# P388/DDP = experiment: In vivo activity against P388/DDP leukemia with acquired resistance to NSC-119875; settings: Days 1,5,9,13, NSC-119875 6.7 mg/kg, NSC-271674 20.0 mg/kg
# Text: P388/DDP refers to a tumor line with acquired resistance to NSC119875.
# (§13) Data are expressed as survival in days and as a percentage increase in […]
# L1210 leukemia [6] = experiment: L1210 leukemia in BDF1 mice, ip treatment on Day 1 only; format: in vivo; settings: for % increase in life span (% ILS): in 1% NaHCO3
# Experimental: The compound in 1% NaHCO3 solution was tested against the L1210 leukemia in BDF1 mice [10^6 cells given to mice on Day 0, treatment (ip) on Day 1 only] in laboratory and the following % increases in life span (%ILS) were noted: […]
# L1210 [7] = experiment: In vitro growth inhibition of L1210 cells; format: cell-based, murine
# Text: (§14) The ID50 refers to the concentration of test compound required to
# (§15) inhibit the growth of either the L1210 or L1210/DDP (NSC119875) resistant
# L1210 leukemia [8] = experiment: L1210 leukemia in mice, treatment delayed until Day 3, singly and in combination; format: in vivo, BDF1 mice; settings: Day 3 treatment
# Experimental: The compound in 1% NaHCO3 solution was tested against the L1210 leukemia in BDF1 mice [10^6 cells given to mice on Day 0, treatment (ip) on Day 1 only] in laboratory and the following % increases in life span (%ILS) were noted:
# When treatment was delayed until Day 3, 5 mg/kg gave 51% ILS, 42% ILS and 39% ILS in three experiments.
# P388 leukemia = experiment: In vivo activity against P388 leukemia; settings: Days 1,5,9,13, NSC-119875 6.7 mg/kg, NSC-271674 20.0 mg/kg
# Text: as §13
# L1210/DDP = experiment: In vitro growth inhibition of L1210/DDP (NSC-119875 resistant) cells; format: cell-based, murine
# Text: as §14, §15
# [9] = 5 mg/kg + cyclophosphamide 50 mg/kg + 5-fluorouracil 75 mg/kg
# [10] = 5 mg/kg + cyclophosphamide 50 mg/kg, two experiments
smiles,measurement,setting,value
"N.N.O=C([O-])C1(C(=O)[O-])CCC1.[Pt+2] [NSC-241240, diamine [1,1cyclobutanedicarboxylato (2)0,0']platinum]",Body Weight Loss score,[1],1
same,Clinical Chemistry - Blood Urea Nitrogen score,[1],1
same,Clinical Chemistry - Creatinine score,[1],1
same,Clinical Chemistry - Serum Glutamic Pyruvic Transaminase score,[1],3
same,Hematology - Hematocrit score,[1],4
same,Hematology - White Blood Cell score,[1],3
same,Histopathology - Gastrointestinal score,[1],1
same,Histopathology - Hematopoietic score,[1],5
same,Histopathology - Lymphatic score,[1],1
same,Histopathology - Renal score,[1],1
same,TOTAL SCORE,[1],21
"N[C@@H]1CCCC[C@H]1N.O=C([O-])c1ccc(C(=O)[O-])c(C(=O)[O-])c1.[H+].[Pt+2] [NSC-271674, 4-Carboxyphthalato(1,2-diaminocyclohexane)platinum(II)]",% T/C (survival time) at optimal dose,"Lewis lung; Lewis lung first line, optimal dose NSC-119875 2, NSC-271674 3.12 mg/kg/inj",122%
same,% T/C (survival time) at optimal dose,"Lewis lung; Lewis lung second line, optimal dose NSC-119875 2, NSC-271674 6.25 mg/kg/inj",127%
same,effect of combination with cyclophosphamide (in words),"murine leukemia L1210; cyclophosphamide 50 mg/kg, optionally 5-FU 75 mg/kg or HU 1000 mg/kg",potentiated
same,antileukemic activity (in words),murine leukemia L1210; mice,antileukemic activity
same,effective dosage,murine leukemia L1210; mice,5-60 mg/kg of body weight
same,approximate LD50,Lethality (LD50) in mice,~75 mg/kg
same,% T/C (survival time) at optimal dose,"L1210 [2]; L1210 first line, optimal dose NSC-119875 2, NSC-271674 0.78 mg/kg/inj",174%
same,% T/C (survival time) at optimal dose,"L1210 [2]; L1210 second line, optimal dose NSC-119875 2, NSC-271674 1.56 mg/kg/inj",325%
same,% T/C (tumor weight) at optimal dose,"Colon #38; Colon #38 first line, optimal dose NSC-119875 8, NSC-271674 12.5 mg/kg/inj",50%
same,% T/C (tumor weight) at optimal dose,"Colon #38; Colon #38 second line, optimal dose NSC-119875 16, NSC-271674 50 mg/kg/inj",33%
same,% T/C (tumor weight) at optimal dose,"CD8F1 mammary; CD8F1 first line, optimal dose NSC-119875 8, NSC-271674 6.25 mg/kg/inj",11%
same,% T/C (tumor weight) at optimal dose,"CD8F1 mammary; CD8F1 second line, optimal dose NSC-119875 8, NSC-271674 25 mg/kg/inj",25%
same,activity against NSC 119875-exhausted strains (in words),[3],appears to be active
same,% ILS,L1210 leukemia [4]; 0.78 mg/kg,27%
same,Cures (of 10),L1210 leukemia [4]; 0.78 mg/kg,0 of 10
same,% ILS,L1210 leukemia [4]; 1.56 mg/kg,33%
same,Cures (of 10),L1210 leukemia [4]; 1.56 mg/kg,0 of 10
same,% ILS,L1210 leukemia [4]; 3.13 mg/kg,46%
same,Cures (of 10),L1210 leukemia [4]; 3.13 mg/kg,0 of 10
same,% ILS,L1210 leukemia [4]; 6.25 mg/kg,163%
same,Cures (of 10),L1210 leukemia [4]; 6.25 mg/kg,1 of 10
same,% ILS,L1210 leukemia [4]; 12.5 mg/kg,191%
same,Cures (of 10),L1210 leukemia [4]; 12.5 mg/kg,2 of 10
same,% ILS,L1210 leukemia [4]; 25 mg/kg,344%
same,Cures (of 10),L1210 leukemia [4]; 25 mg/kg,5 of 10
same,% ILS,L1210 leukemia [5]; 0.78 mg/kg,19%
same,% ILS,L1210 leukemia [5]; 1.56 mg/kg,19%
same,% ILS,L1210 leukemia [5]; 3.13 mg/kg,41%
same,% ILS,L1210 leukemia [5]; 6.25 mg/kg,58%
same,questionably toxic deaths,L1210 leukemia [5]; 6.25 mg/kg,2 deaths
same,% ILS,L1210 leukemia [5]; 12.5 mg/kg,147%
same,% ILS,L1210 leukemia [5]; 25 mg/kg,86%
same,cures,L1210 leukemia [5]; all doses,No cures
same,% T/C (survival time) at optimal dose,"B16 melanoma; B16 first line, optimal dose NSC-119875 2, NSC-271674 6.25 mg/kg/inj",171%
same,% T/C (survival time) at optimal dose,"B16 melanoma; B16 second line, optimal dose NSC-119875 1, NSC-271674 1.56 mg/kg/inj",159%
same,% ILS,P388/DDP,201%
same,Survival,P388/DDP,33.3 days
same,% increase in life span (% ILS),L1210 leukemia [6]; 5 mg/kg ip,70%
same,% increase in life span (% ILS),L1210 leukemia [6]; 10 mg/kg ip,118%
same,% increase in life span (% ILS),L1210 leukemia [6]; 20 mg/kg ip,119%
same,% increase in life span (% ILS),L1210 leukemia [6]; 25 mg/kg ip,139%
same,% increase in life span (% ILS),L1210 leukemia [6]; 40 mg/kg ip,232%
same,mice survived > 60 days,L1210 leukemia [6]; 50 mg/kg ip,1 of 8
same,% increase in life span (% ILS),L1210 leukemia [6]; 50 mg/kg ip,288%
same,mice survived > 60 days,L1210 leukemia [6]; 60 mg/kg ip,1 of 8
same,% increase in life span (% ILS),L1210 leukemia [6]; 60 mg/kg ip,174%
same,ID50 (concentration required to inhibit the growth of cells by 50 percent),L1210 [7],0.30 µg/mL
same,% ILS,L1210 leukemia [8]; [9],673%
same,>60 day survivors,L1210 leukemia [8]; [9],8 of 10
same,% ILS,L1210 leukemia [8]; [10],416% and 217%
same,>60 day survivors,L1210 leukemia [8]; [10],3 of 10 and no
same,% ILS,"L1210 leukemia [8]; 5 mg/kg alone, three experiments",51% and 42% and 39%
same,renal toxicity (in words),[1]; against NSC 119875,superior results in testing for renal toxicity
same,Body Weight Loss score,[1],3
same,Clinical Chemistry - Blood Urea Nitrogen score,[1],1
same,Clinical Chemistry - Creatinine score,[1],1
same,Clinical Chemistry - Serum Glutamic Pyruvic Transaminase score,[1],3
same,Hematology - Hematocrit score,[1],3
same,Hematology - White Blood Cell score,[1],3
same,Histopathology - Gastrointestinal score,[1],1
same,Histopathology - Hematopoietic score,[1],5
same,Histopathology - Lymphatic score,[1],1
same,Histopathology - Renal score,[1],2
same,TOTAL SCORE,[1],23
same,% ILS,P388 leukemia,56%
same,Survival,P388 leukemia,20.7 days
same,ID50 (concentration required to inhibit the growth of cells by 50 percent),L1210/DDP,0.23 µg/mL
"CC(C)N.CC(C)N.[Cl-].[Cl-].[OH-].[OH-].[Pt] [NSC-256927, bisisopropylamine-cis-dichloro-transdihydroxy]",Body Weight Loss score,[1],2
same,Clinical Chemistry - Blood Urea Nitrogen score,[1],1
same,Clinical Chemistry - Creatinine score,[1],1
same,Clinical Chemistry - Serum Glutamic Pyruvic Transaminase score,[1],3
same,Hematology - Hematocrit score,[1],4
same,Hematology - White Blood Cell score,[1],3
same,Histopathology - Gastrointestinal score,[1],1
same,Histopathology - Hematopoietic score,[1],4
same,Histopathology - Lymphatic score,[1],4
same,Histopathology - Renal score,[1],2
same,TOTAL SCORE,[1],25
NC1CCCCC1N.O=S(=O)([O-])[O-].[Pt+2] (stereo not shown) [NSC-250427],Body Weight Loss score,[1],2
same,Clinical Chemistry - Blood Urea Nitrogen score,[1],1
same,Clinical Chemistry - Creatinine score,[1],1
same,Clinical Chemistry - Serum Glutamic Pyruvic Transaminase score,[1],5
same,Hematology - Hematocrit score,[1],3
same,Hematology - White Blood Cell score,[1],3
same,Histopathology - Gastrointestinal score,[1],1
same,Histopathology - Hematopoietic score,[1],4
same,Histopathology - Lymphatic score,[1],2
same,Histopathology - Renal score,[1],2
same,TOTAL SCORE,[1],24
